For 18 substances, 3 h FOB score results are on record in the OligoGym collection.

HELM strings list units from the 5' end as sugar, base in round brackets, then linkage (d deoxyribose, r ribose, m 2'-O-methyl, p phosphodiester). Strings are as the collection lists them; they lack the last nucleoside at the 3' end of the tested compound. [moe] = 2'-O-(2-methoxyethyl) (MOE); [sp] = phosphorothioate linkage; [m5C] = 5-methylcytosine

This data set addresses UBE3A-ATS. In words: mouse, dose not given. The note with it: ASO.
As to “RNA1{[moe](T)[sp].[moe](T)p.[moe]([m5C])p.[moe](A)p.d([m5C])[sp].d([m5C])[sp].d(A)[sp].d(T)[sp].d(T)[sp].d(T)[sp].d(T)[sp].d(G)[sp].d(A)[sp].d([m5C])[sp].[moe]([m5C])p.[moe](T)p.[moe](T)p.[moe]([m5C])[sp].[moe](T)}$$$$ (last 3' nucleoside missing)”, the 3 h FOB score was 1 score 0-7.
For the substance “RNA1{[moe]([m5C])[sp].[moe]([m5C])p.[moe](A)p.[moe](G)p.[moe]([m5C])p.d([m5C])[sp].d(A)[sp].d(G)[sp].d(G)[sp].d(T)[sp].d(G)[sp].d(T)[sp].d([m5C])[sp].d(T)[sp].d(T)[sp].[moe](A)p.[moe](T)p.[moe](A)[sp].[moe](T)}$$$$ (last 3' nucleoside missing)”, the 3 h FOB score was found to be 3.8 score 0-7.
The substance “RNA1{[moe](G)[sp].[moe](G)p.[moe](T)p.[moe]([m5C])p.[moe](A)p.[moe](A)p.d([m5C])[sp].d([m5C])[sp].d(A)[sp].d(A)[sp].d(T)[sp].d(T)[sp].d(T)[sp].d(G)[sp].d([m5C])[sp].d(T)[sp].[moe](A)p.[moe](T)[sp].[moe](T)}$$$$ (last 3' nucleoside missing)” came in with a 3 h FOB score of 5 score 0-7.
The same measure for “RNA1{[moe](G)[sp].[moe](A)p.[moe](T)p.[moe](T)p.[moe](G)p.d(A)[sp].d([m5C])[sp].d(T)[sp].d(A)[sp].d([m5C])[sp].d(T)[sp].d(T)[sp].d([m5C])[sp].d(A)[sp].d(A)[sp].[moe]([m5C])p.[moe]([m5C])p.[moe](T)[sp].[moe](G)}$$$$ (last 3' nucleoside missing)”: 1.3 score 0-7.
Under “RNA1{[moe](G)[sp].[moe](T)p.[moe](T)p.[moe](T)p.[moe](A)p.d(T)[sp].d(A)[sp].d(G)[sp].d(G)[sp].d(G)[sp].d(T)[sp].d(G)[sp].d(G)[sp].d(T)[sp].d(T)[sp].[moe](G)p.[moe](G)p.[moe](T)[sp].[moe](T)}$$$$ (last 3' nucleoside missing)” stands 7 score 0-7; under “RNA1{[moe](A)[sp].[moe](G)p.[moe](A)p.[moe](G)p.[moe](G)p.d(A)[sp].d(T)[sp].d(T)[sp].d(T)[sp].d(A)[sp].d(G)[sp].d(A)[sp].d(G)[sp].d(T)[sp].d(T)[sp].[moe](A)p.[moe](A)p.[moe](A)[sp].[moe](A)}$$$$ (last 3' nucleoside missing)”, 2.8 score 0-7.
Under “RNA1{[moe](T)[sp].[moe]([m5C])p.[moe](T)p.[moe](T)p.[moe](G)p.d([m5C])[sp].d(T)[sp].d(G)[sp].d(A)[sp].d(T)[sp].d([m5C])[sp].d(A)[sp].d([m5C])[sp].d(A)[sp].d(T)[sp].[moe](T)p.[moe](A)p.[moe]([m5C])[sp].[moe]([m5C])}$$$$ (last 3' nucleoside missing)” stands 0 score 0-7.
“RNA1{[moe](G)[sp].[moe](A)p.[moe](A)p.[moe]([m5C])p.[moe](T)p.d(A)[sp].d(T)[sp].d([m5C])[sp].d([m5C])[sp].d(T)[sp].d(G)[sp].d([m5C])[sp].d(A)[sp].d(T)[sp].d([m5C])[sp].[moe]([m5C])p.[moe](G)p.[moe](A)[sp].[moe](G)}$$$$ (last 3' nucleoside missing)” yielded a 3 h FOB score of 4.2 score 0-7.
Under “RNA1{[moe](G)[sp].[moe]([m5C])p.[moe](T)p.[moe](T)p.[moe](T)p.d(T)[sp].d([m5C])[sp].d(A)[sp].d(G)[sp].d(T)[sp].d([m5C])[sp].d(A)[sp].d(G)[sp].d(G)[sp].d(T)[sp].[moe](A)p.[moe]([m5C])p.[moe](A)[sp].[moe](G)}$$$$ (last 3' nucleoside missing)” stands 6 score 0-7.
Consider “RNA1{[moe](A)[sp].[moe](A)p.[moe](A)p.[moe](A)p.[moe](T)p.d([m5C])[sp].d([m5C])[sp].d(A)[sp].d(T)[sp].d(T)[sp].d(T)[sp].d(G)[sp].d(T)[sp].d([m5C])[sp].d([m5C])[sp].[moe](A)p.[moe](G)p.[moe](T)[sp].[moe]([m5C])}$$$$ (last 3' nucleoside missing)”, for which the 3 h FOB score turned out to be 2.3 score 0-7.
Take “RNA1{[moe](G)[sp].[moe](T)p.[moe](A)p.[moe](A)p.[moe](G)p.d(T)[sp].d(A)[sp].d(T)[sp].d(A)[sp].d(G)[sp].d(A)[sp].d(T)[sp].d(G)[sp].d([m5C])[sp].d([m5C])[sp].[moe](T)p.[moe]([m5C])p.[moe](T)[sp].[moe]([m5C])}$$$$ (last 3' nucleoside missing)”: the 3 h FOB score turned out to be 3.8 score 0-7.
Under “RNA1{[moe](A)[sp].[moe]([m5C])p.[moe](T)p.[moe](T)p.[moe](T)p.d(A)[sp].d(T)[sp].d(A)[sp].d(G)[sp].d(T)[sp].d(G)[sp].d(T)[sp].d(G)[sp].d(G)[sp].d(A)[sp].[moe](T)p.[moe](G)p.[moe](G)[sp].[moe](T)}$$$$ (last 3' nucleoside missing)” stands 6.8 score 0-7; under “RNA1{[moe]([m5C])[sp].[moe](T)p.[moe](G)p.[moe](T)p.[moe](A)p.d(A)[sp].d(G)[sp].d(G)[sp].d(T)[sp].d(G)[sp].d(A)[sp].d(T)[sp].d(A)[sp].d(T)[sp].d([m5C])[sp].[moe](T)p.[moe](A)p.[moe](T)[sp].[moe](A)}$$$$ (last 3' nucleoside missing)”, 3 score 0-7; under “RNA1{[moe](A)[sp].[moe](T)p.[moe]([m5C])p.[moe](T)p.[moe]([m5C])p.d(G)[sp].d(G)[sp].d(G)[sp].d(T)[sp].d(A)[sp].d(T)[sp].d(A)[sp].d(T)[sp].d(A)[sp].d(A)[sp].[moe](A)p.[moe](T)p.[moe](T)[sp].[moe](A)}$$$$ (last 3' nucleoside missing)”, 0 score 0-7.
“RNA1{[moe](A)[sp].[moe](A)p.[moe](G)p.[moe](T)p.[moe](G)p.d(G)[sp].d(A)[sp].d(T)[sp].d([m5C])[sp].d(T)[sp].d([m5C])[sp].d(T)[sp].d(T)[sp].d(G)[sp].d(G)[sp].[moe](G)p.[moe]([m5C])p.[moe](A)[sp].[moe](G)}$$$$ (last 3' nucleoside missing)” registered a 3 h FOB score of 4.8 score 0-7.
The same measure for “RNA1{[moe](G)[sp].[moe](T)p.[moe](T)p.[moe](T)p.d(T)[sp].d(T)[sp].d([m5C])[sp].d([m5C])[sp].d(A)[sp].d(T)[sp].d(T)[sp].d(T)[sp].d(T)[sp].d(T)[sp].[moe]([m5C])p.[moe](T)p.[moe]([m5C])p.[moe](T)[sp].[moe](T)}$$$$ (last 3' nucleoside missing)”: 0 score 0-7.
The substance “RNA1{[moe](G)[sp].[moe](T)p.[moe](T)p.[moe](T)p.[moe](T)p.d([m5C])[sp].d(G)[sp].d([m5C])[sp].d([m5C])[sp].d([m5C])[sp].d(G)[sp].d(T)[sp].d(T)[sp].d(A)[sp].d([m5C])[sp].[moe]([m5C])p.[moe](T)p.[moe]([m5C])[sp].[moe](A)}$$$$ (last 3' nucleoside missing)” registered a 3 h FOB score of 5.3 score 0-7.
On to “RNA1{[moe](G)[sp].[moe](G)p.[moe](T)p.[moe]([m5C])p.[moe](A)[sp].d(T)[sp].d([m5C])[sp].d(T)[sp].d([m5C])[sp].d(G)[sp].d(G)[sp].d(G)[sp].d(T)[sp].[moe](A)p.[moe](T)p.[moe](A)[sp].[moe](T)}$$$$ (last 3' nucleoside missing)”, for which the 3 h FOB score amounted to 6 score 0-7.
